# Results reported in patent US20230213527A1, “COMPOSITIONS AND METHODS FOR POLYPEPTIDE ANALYSIS” (Quantum-Si Incorporated, priority 2021, published 2023).
# Entries after “also recorded” stand apart in the source; their conditions may differ. Square brackets hold non-standard residues; d marks the D form. Ends that are not written are not given here. Cit = NC(=O)NCCC[C@H](N)C(=O)O
# Assays:
# PhTET3 = target: T1, PhTET3 (Pyrococcus horikoshii, UniProt O59485); assay: Aminopeptidase cleavage during dynamic sequencing with PhTET3; type: biochemical, P. horikoshii
# T1 construct: His tag (inferred: purified as the recognizers, on Ni-NTA); made in house; host or cells: E. coli BL21(DE3)
# T1 sequence (O59485 1-354): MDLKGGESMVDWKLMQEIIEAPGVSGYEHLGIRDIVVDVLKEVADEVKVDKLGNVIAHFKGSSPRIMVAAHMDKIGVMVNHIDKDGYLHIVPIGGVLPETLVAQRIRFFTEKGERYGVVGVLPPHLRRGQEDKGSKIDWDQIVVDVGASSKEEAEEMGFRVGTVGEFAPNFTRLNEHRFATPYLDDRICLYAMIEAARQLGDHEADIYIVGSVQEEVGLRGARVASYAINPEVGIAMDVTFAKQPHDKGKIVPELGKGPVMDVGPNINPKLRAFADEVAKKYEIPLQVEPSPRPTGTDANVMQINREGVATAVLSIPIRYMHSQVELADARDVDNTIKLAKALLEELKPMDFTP
# Description: The collected traces consisted of regions of distinct pulsing, which were referred to as recognition segments (RSs), separated by regions lacking recognition pulsing (non-recognition segments, NRSs). Analysis software was developed to automatically identify pulsing regions and transition points within traces (Methods). Traces began with recognition of phenylalanine with a median PD of 2.36 s (FIG. 2D), in agreement with the PD observed for FAA in recognition-only assays. This pattern terminated after aminopeptidase addition (on average 11 min after addition), and was followed by the ordered appearance of two RSs with median PDs of 0.25 s and 0.49 s (FIG. 2D), corresponding to the short and medium PDs obtained in YAA and WAA recognition-only assays.
# (§1) A second chip check was then performed. […] Data was recorded for 15 min.
# PS610 = assay: Dynamic single-molecule sequencing, recognition by PS610; type: binding, A. tumefaciens; conditions: for RS mean PD, recognition of N-terminal phenylalanine: lysine or acetylated lysine downstream
# Procedure: The semiconductor chip was placed in the sequencing device and a chip check was performed to test electronic circuit function and to optimize laser coupling alignment. The chip was then removed from the device socket and the chip was washed twice with 50 μL of 70% isopropanol, followed by four washes with 30 μL of wash buffer (50 mM MOPS pH 8.0, 60 mM potassium acetate, 50 mM glucose, 20 mM magnesium acetate, and surfactant mix) through a flow cell attached to the chip. A second chip check was then performed. […] The chip was then washed six times with wash buffer, followed by addition of an imaging solution (wash buffer with 5 mM Trolox and an oxygen scavenging system). The laser was unblocked and the occupancy percentage (target 10-30%, Poisson distributed) was recorded by acquiring a photobleaching signal from a fluorophore attached to the peptide complex during 5 min of laser illumination. […] The laser was then blocked briefly and aminopeptidases were added to the sequencing reaction via the flow cell and mixed thoroughly (final concentration 2-8 μM PhTET2 and/or 20-80 μM PhTET3, as indicated according to the experiment). The laser was then unblocked, and data was recorded for 10 hours. For all runs, 30 μL of mineral oil was added to fluid reservoirs at each port of the flow cell to prevent evaporation during the run.
# (§2) The measured signal on-chip comprises various noise components, the most dominant one being due to fluorescent emissions from diffusing recognizers in the reaction chamber. The pulse caller algorithm for a given reaction chamber starts by estimating the statistical properties of this background noise component. Once an estimate within certain error bounds has been established, the algorithm works in an online fashion observing new frames of data as they are generated. At each point in time, the algorithm maintains state indicating whether the signal is due to the background component only or a pulse from a recognizer-NAA interaction is being observed. The state transition from background to pulse is triggered using an edge detection test where the shift in signal is expected to be significant with respect to the background component's statistical distribution. The state transition from pulse to background is triggered when a small window of the most recent frames of the signal appears to conform to the background component's distribution again. The algorithm maintains an updated model of the background component as new background frames are observed. This provides robustness against drift in the signal intensity together with a feedback control loop that maintains a stable optical coupling of the laser into the chip based on any such detected drift. As detected pulses can be due to true recognizer-to-dipeptide interaction events as well as other occasional transient noise spikes, a downstream filter layer is employed to test the significance of pulse events based on their duration, intensity, and noise patterns within the context of the full timeline of the run and the entire dataset of reaction chambers.
# Initial regions are determined by performing a sliding window calculation of pulse rate along the time dimension of a series of pulses. Regions with a mean pulse rate >1 pulse/min are then subdivided according to a greedy bisection approach. Here, the pulses on the left and right of each potential split are assessed for statistically significant deviation in any of four separate pulse properties—intensity, bin ratio, pulse duration, and interpulse duration—using a Mann-Whitney U Test. To define RSs, the split point with the lowest p-value for any of the four properties is used to sub-divide the region and the process continues until no regions remain with a candidate split point with p-value <10^−5 in any comparison. In this manner, transitions from one RS to the next in a region of continuous pulsing are determined a priori on the basis of changes in fluorescence properties of pulsing kinetics.
# PS1220 = target: T2, PS1220 (Kluyveromyces lactis, UniProt O60014, E169T/E174T/I162E/N105S/N176F/R116K/S153T/V146L); assay: Dynamic single-molecule sequencing, recognition by PS1220; type: binding; conditions: vimentin peptide fragments
# T2 construct: PS1220; 566
# T2 sequence (O60014 with tags, fused parts or gaps N105S/R116K/V146L/S153T/I162E/E169T/E174T/N176F): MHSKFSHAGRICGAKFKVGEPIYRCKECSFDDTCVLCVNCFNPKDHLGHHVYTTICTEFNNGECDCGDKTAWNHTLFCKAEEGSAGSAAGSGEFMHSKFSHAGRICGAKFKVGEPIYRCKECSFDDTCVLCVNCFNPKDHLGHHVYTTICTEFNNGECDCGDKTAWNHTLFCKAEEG
# Procedure: (§3) Sequencing reactions using the recognizers PS610 (FYW), PS1220 (R), and PS1223 (LIV) were performed separately for the QP706 and QP1073 peptide fragments. Each recognizer was labeled with a unique dye and/or unique number of dyes. A scatter plot of bin ratio v. pulse duration is shown for the QP706 peptide fragment in FIG. 18A and for the QP1073 peptide fragment in FIG. 18B. In the plot of FIG. 18A, three clusters corresponding to FLE, LEQ, and RFL segments are visible. […] In the plot of FIG. 18B, two clusters corresponding to FLE and LEQ segments are visible, but there is no cluster corresponding to RFL.
# Results from additional sequencing reactions performed using the recognizers PS610 (FYW), PS1220 (R), and PS1223 (LIV) and the QP706 and QP1073 peptide fragments are shown in FIGS. 19A-19D and 20A-20D. Traces from the QP706 reactions are shown in FIGS. 19A-19B, and corresponding scatter plots of intensity v. bin ratio are shown in FIGS. 19C-19D. […] Traces from the QP1073 reactions are shown in FIGS. 20A-20B, and the corresponding scatter plots of intensity v. bin ratio are shown in FIGS. 20C-20D.
# PS961 [1] = assay: Dynamic single-molecule sequencing, recognition by PS961; type: binding, Planctomycetes; conditions: for RS mean PD, recognition of N-terminal leucine: tyrosine or phosphotyrosine at position 2
# Procedure: The semiconductor chip was placed in the sequencing device and a chip check was performed to test electronic circuit function and to optimize laser coupling alignment. The chip was then removed from the device socket and the chip was washed twice with 50 μL of 70% isopropanol, followed by four washes with 30 μL of wash buffer (50 mM MOPS pH 8.0, 60 mM potassium acetate, 50 mM glucose, 20 mM magnesium acetate, and surfactant mix) through a flow cell attached to the chip. A second chip check was then performed. The laser was then blocked via an integrated software-controlled shutter, peptide complex was added to a final concentration of 1-10 nM and mixed thoroughly, and the chip was incubated for 15 min. The chip was then washed six times with wash buffer, followed by addition of an imaging solution (wash buffer with 5 mM Trolox and an oxygen scavenging system). The laser was unblocked and the occupancy percentage (target 10-30%, Poisson distributed) was recorded by acquiring a photobleaching signal from a fluorophore attached to the peptide complex during 5 min of laser illumination. For NAA recognition-only assays, after peptide loading, labeled recognizer was added to a final concentration of 50 nM PS610, 100 nM PS691, or 250 nM PS961 (as indicated according to the experiment), and data was recorded for 10 hours. For dynamic sequencing assays, after peptide loading, a mixture of labeled recognizers was added to obtain final concentrations of 50 nM PS610, 100 nM PS691, and 250 nM PS961. Data was recorded for 15 min. The laser was then blocked briefly and aminopeptidases were added to the sequencing reaction via the flow cell and mixed thoroughly (final concentration 2-8 μM PhTET2 and/or 20-80 μM PhTET3, as indicated according to the experiment). The laser was then unblocked, and data was recorded for 10 hours. For all runs, 30 μL of mineral oil was added to fluid reservoirs at each port of the flow cell to prevent evaporation during the run.
# as §2
# Initial regions are determined by performing a sliding window calculation of pulse rate along the time dimension of a series of pulses. Regions with a mean pulse rate >1 pulse/min are then subdivided according to a greedy bisection approach.
# PS691 = conditions: tyrosine or phosphotyrosine at position 3
# Procedure: The semiconductor chip was placed in the sequencing device and a chip check was performed to test electronic circuit function and to optimize laser coupling alignment. The chip was then removed from the device socket and the chip was washed twice with 50 μL of 70% isopropanol, followed by four washes with 30 μL of wash buffer (50 mM MOPS pH 8.0, 60 mM potassium acetate, 50 mM glucose, 20 mM magnesium acetate, and surfactant mix) through a flow cell attached to the chip. A second chip check was then performed. […] The laser was unblocked and the occupancy percentage (target 10-30%, Poisson distributed) was recorded by acquiring a photobleaching signal from a fluorophore attached to the peptide complex during 5 min of laser illumination. For NAA recognition-only assays, after peptide loading, labeled recognizer was added to a final concentration of 50 nM PS610, 100 nM PS691, or 250 nM PS961 (as indicated according to the experiment), and data was recorded for 10 hours. […] Data was recorded for 15 min. […]
# The measured signal on-chip comprises various noise components, the most dominant one being due to fluorescent emissions from diffusing recognizers in the reaction chamber. […] This provides robustness against drift in the signal intensity together with a feedback control loop that maintains a stable optical coupling of the laser into the chip based on any such detected drift. […]
# PS1165 = target: T3, PS1165; assay: Dynamic single-molecule sequencing, recognition by PS1165; type: binding; conditions: lysine or acetylated lysine downstream
# T3 construct: PS1165; 511
# Procedure: Sequencing reactions using the recognizers PS691 (R), PS610 (FYW), PS961 (LIV), and PS1165 (A) were performed separately for the peptides RLYFKAYPDDD (SEQ ID NO: 825) and RLK{acetyl}FIAYPDDD (SEQ ID NO: 826) (where K{acetyl} is an acetylated lysine). Recognition of the N-terminal phenylalanine and alanine residues preceding lysine or acetyl-lysine by PS610 and PS1165, respectively, was observed, with distinct pulse durations depending on whether the peptide contained lysine (F=1.4 s, A=1.3 s; FIG. 16A) or acetylated lysine (F=1.8 s, A=2.2 s; FIG. 16B). Recognition of N-terminal phenylalanine occurred with RS mean PD of 1.4 s for FAK and 1.8 s for FAK{acetyl }. Recognition of N-terminal alanine occurred with RS mean PD of 1.3 s for AK and 2.2 s for AK{acetyl}.
# PS1223 = assay: Dynamic single-molecule sequencing, recognition by PS1223; type: binding
# Procedure: as §3
# In this example, sequencing reactions were conducted for 4 pairs of unmodified and citrullinated peptides: QP1028 & QP1029, QP1030 & QP1031, QP1032 & QP1033, and QP707 & QP789. […] For the QP1028 & QP1029 and QP1030 & QP1031 pairs, sequencing reactions were conducted using the PS610 (FYW) recognizer. For the QP1032 & QP1033 and QP707 & QP789 pairs, sequencing reactions were conducted using the PS1223 (LIV) recognizer.
# PS621 = target: T4, PS621 (Kluyveromyces lactis, UniProt O60014, E174T/N105S/N176F/R116K/S153T/V146T); assay: Dynamic single-molecule sequencing, recognition by PS621; type: binding; conditions: citrulline at position 2
# T4 construct: PS621; […]
# PS961 [2] = assay: NAA recognition-only single-molecule assay on chip with PS961; type: binding, Planctomycetes; conditions: 250 nM PS961
# Description: To expand the set of recognizable NAAs, N-end rule pathway proteins were investigated as a source of additional recognizers. In a comprehensive screen of diverse ClpS family proteins, a group of ClpS proteins from the bacterial phylum Planctomycetes with native binding to N-terminal leucine, isoleucine, and valine was discovered. […] The median PD of binding to peptides with N-terminal LAA, IAA, and VAA was 1.21, 0.28, and 0.21 s, respectively, in agreement with bulk characterization (FIG. 7C).
# as §1
# The resulting regions are called recognition segments (RSs).
# Sequence of PS1223 (as listed by the source): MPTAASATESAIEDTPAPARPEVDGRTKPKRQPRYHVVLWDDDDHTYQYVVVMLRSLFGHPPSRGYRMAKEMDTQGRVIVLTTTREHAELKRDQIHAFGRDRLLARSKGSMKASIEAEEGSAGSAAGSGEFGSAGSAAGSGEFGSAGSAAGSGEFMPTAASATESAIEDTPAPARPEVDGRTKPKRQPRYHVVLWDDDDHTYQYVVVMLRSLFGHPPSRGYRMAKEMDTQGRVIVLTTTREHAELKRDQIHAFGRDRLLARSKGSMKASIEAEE
# Sequence of PS961 (as listed by the source): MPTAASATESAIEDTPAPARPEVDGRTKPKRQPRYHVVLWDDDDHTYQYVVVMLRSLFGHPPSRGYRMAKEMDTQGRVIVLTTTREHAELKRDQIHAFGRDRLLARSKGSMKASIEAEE
# T3 sequence (Q13490 with tags, fused parts or gaps): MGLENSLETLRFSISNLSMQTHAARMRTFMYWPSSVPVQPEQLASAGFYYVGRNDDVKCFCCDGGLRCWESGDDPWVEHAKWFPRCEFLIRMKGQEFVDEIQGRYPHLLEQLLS
# T4 sequence (O60014 other isoform, or with tags, fused parts or gaps N105S/R116K/V146T/S153T/E174T/N176F): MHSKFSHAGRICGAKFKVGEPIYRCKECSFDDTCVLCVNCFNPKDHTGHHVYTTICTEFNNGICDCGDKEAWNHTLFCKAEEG
substance,measurement,setting,value
FAAWAAYAA [FAAWAAYAAAADDD],Termination of phenylalanine recognition pattern after aminopeptidase addition (average),PhTET3,11 min
same,"Median PD, recognition of phenylalanine (first RS)","PS610; PS610, PhTET3 added after 15 minutes",2.36 s
same,"Median PD, first RS appearing after phenylalanine",PS610; PS610 with PhTET3,0.25 s
same,"Median PD, second RS appearing after phenylalanine",PS610; PS610 with PhTET3,0.49 s
"VCitFLEQQNK (V[Cit]FLEQQNK) [QP1073, citrullinated peptide fragment of vimentin]",Recognition of arginine / citrulline residue by PS1220,PS1220,did not recognize; also recorded: does not recognize
RLpYFIAYPDDD,"RS mean PD, recognition of N-terminal leucine",PS961 [1],3.4 s
same,"RS mean PD, recognition of N-terminal arginine",PS691,0.45 s
same,Recognition of Y or pY by PS610 between L and F,PS610,not recognized
"RLK{acetyl}FIAYPDDD (RLK(Ac)FIAYPDDD-NH2; also: C-terminal azidolysine (general statement for all synthetic peptides)) [FAK{acetyl }, peptide containing acetylated lysine]","RS mean PD, recognition of N-terminal alanine",PS1165,2.2 s
same,"RS mean PD, recognition of N-terminal phenylalanine",PS610,1.8 s
"VRFLEQQNK [QP706, peptide fragment of vimentin]",Recognition of leucine (L) residue by PS1223,PS1223; vimentin peptide fragments,recognized; also recorded: recognition
same,Recognition of arginine / citrulline residue by PS1220,PS1220,recognized; also recorded: recognition
same,Recognition of phenylalanine (F) residue by PS610,PS610; vimentin peptide fragments,recognized; also recorded: recognition
RLYFIAYPDDD,"RS mean PD, recognition of N-terminal leucine",PS961 [1],2.45 s
same,"RS mean PD, recognition of N-terminal arginine",PS691,0.9 s
same,Recognition of Y or pY by PS610 between L and F,PS610,Y recognition
LCitLAFAYPDDDK (L[Cit]LAFAYPDDDK) [QP789],Median PD of recognition of N-terminal leucine by PS961,PS961 [1]; arginine or citrulline at position 2,0.78 s
same,Pulse Width,"PS1223; recognizer PS1223, recognition of the N-terminal amino acid",0.92 s
same,N-terminal arginine recognition by PS621,PS621,eliminated
IAA: peptide with N-terminal IAA; in b185 the N-terminal IAA state of LAQFASIAAYASDDD (not fully specified (C-terminus); also: C-terminal azidolysine conjugated to DNA-streptavidin linker),Median PD,"PS961 [1]; peptide LAQFASIAAYASDDD, PS610 and PS961, PhTET2 and PhTET3",0.25 s
same,Median PD of binding,PS961 [2],0.28 s
RLYFKAYPDDD (FAK) [peptide containing lysine],"RS mean PD, recognition of N-terminal alanine",PS1165,1.3 s
same,"RS mean PD, recognition of N-terminal phenylalanine",PS610,1.4 s
